The values that follow come from patent publication US11446299B2, “Carbazole EHop-016 derivatives as anticancer and anti-migratory agents” (UNIVERSITY OF PUERTO RICO, priority 2017, dated 2022).

For data set [1] the following is noted: mouse model; cited from earlier work.
For data set [2], the system named is MCF-7 cancer cells. Kind of data set: Sulforhodamine B (SRB) growth inhibition assay. Format: cell-based. The following applies: Homo sapiens, MCF7, 24 h treatment, mean of triplicate, SD <10%. The procedure:
(§1) Various compounds were tested to evaluate the dose response curve for effect on MCF-7 cancer cells and MDA-MB-231 cancer cells. MCF-7 and MDA-MB-231 cells were cultured in 10% Minimum Essential Medium Eagle (MEME) supplemented with Earle's Balanced Salt Solution (EBSS), Non-essential Amino acids (NEAA), Sodium pyruvate, Pen/Strep, L-glutamine and Fetal Bovine Serum (FBS) at 37° C. in 5% CO2.
(§2) Sulforhodamine B (SRB) Assay: A stock solution of compounds was prepared at 50 mM in 100% DMSO. For cells preparation, a flask of 75 cm^2 or 25 cm^2 were used for 2.6×10^5 cells or 1.44×10^5 cells respectively with an 80-90% of confluence. Cells were washed with PBS and trypsinized. The concentration of cells was determined using a 1:2 dilutions with Trypan Blue and a hemocytometer. After cell count, the concentration was adjusted to have a 1.9×10^4 cells/well. Approximately […] of cells suspension, compounds, control positive and control negative were added in triplicates to a 96 well plate. Positive controls used were ellipticine, doxorubicin, and/or vincristine, and the negative control was DMSO 0.1%. All compounds at 50, 25, 12.5, 6.3, and 1.6 μM were incubated with cells at 37° C. for 24 hrs. For fixation, cold TCA 50% was used and incubated at 4° C. for 1 hr. Wells were washed and dried prior to tincture with 100 μL of SRB 0.4%. To remove excess of SRB, acetic acid was used. For analysis, TRIS-BASE Solution (pH=10.5) was used and shacked prior to reading using an ELISA reader at 510 nm and the software SoftMax Pro 4.8.
(§3) For each compound, 50% growth inhibition (GI50) was calculated from Sigmoidal dose-response curves (variable-slope) that were generated with data obtained from experiments carried out in triplicates (GI50 values were generated with GraphPad Prism V. 6.02, GraphPad Software, Inc.). The results are presented in FIGS. 4A-4B (MCF-7 cancer cells) and FIGS. 5A-5B (MDA-MB-231 cancer cells).

Data set [3] has as its system tumor. The following applies: at ≥25 mg/kg Body Weight, mouse model; cited from earlier work.
In data set [4] the test system is MDA-MB-231 breast cancer cells. Kind of data set: Wound healing assay (scratch method), cell migration. The class given is cell-based, human. The settings on record: for inhibition at 10 µM: read-out: anti-migratory activity (inhibition of migration). Here is the method: The experimental data of anti-migratory activities for compounds 3a-d and 4a-f were obtained using MDA-MB-231 breast cancer cells. For the migration assay, a wound-healing assay (scratch-wound assay) was utilized in the presence of vehicle (0.02% DMSO) or compounds at […].
Prior to assays, cells were grown until 80-90% confluence was observed. A 75 cm2 flask was used for 2.6×10^5 cells/mL in 10 mL and for a 25 cm2 flask 1.44×10^5 cells/mL in 5 mL. The cells were washed with PBS to remove all traces of FBS. 2 mL was added for a 25 cm2 flasks or 4 mL for a 75 cm2 flasks trypsin, and incubated 5-10 min at 37° C. At the end of the incubation time, cells were re-suspended and counted with hemocytometer using 1:2 dilutions with Trypan blue. Subsequently, cell viability was calculated. In a 12 multiwell plate, the plastic pattern was used to draw a fine space with a fine marker on the bottom of the plate. Cells were seeded at 1.5-2.2×10^5 cells/mL in 1 mL and incubated for 24 h. Cells were then rinsed with PBS and incubated in starving media (0.5% FBS) overnight. All controls and drugs were tested in triplicate. The negative control for each drug was prepared according to the drug's DMSO concentration.
Drugs were diluted and the final concentration at each well […]. The wound was made using a sterile pipette tip of […]. Cells were then rinsed very gently with media without FBS and media with negative controls was added. After a 24 h incubation, the gap distance was evaluated using the software Lumera Infinity Analyze 6.4.0. Pictures were taken at 0, 8, 12 and 24 h using a 10× objective. The percentage of migration was calculated using the following formula: 100−[(X0/X0)]*100 for time 0 h measurements 100−[(X24/X0)]*100 for time 24 h measurements
The experimental data of anti-migratory activities for compounds 3a-d and 4a-f were obtained using MDA-MB-231 breast cancer cells, and results are summarized in Table 1. For the migration assay, we used a wound-healing assay (scratch-wound assay)^22 in the presence of vehicle (0.02% DMSO) or compounds at 10 μM (FIG. 6). […] However, compounds 3a, 3c, and 4a-f inhibited migration in the range of 1-9%.
(§4) An additional example of a compounds with modification in building block C was synthesized via a different procedure as represented in Scheme 2B (see FIG. 11B). The compounds that were synthesized were tested for their biological activity by determination of their cytotoxicity in MDA-MB-231 breast cancer cell lines as shown in Table 5. The cytotoxicity's are expressed as IC50, which indicates the concentration at which 50% of the cell growth is inhibited. Furthermore, the inhibition of cell migration was tested at a concentration of 0.2×IC50, or, when the IC50 was >50 μM at a concentration of 10 μM. For comparison, Table 5 also includes the Lipinski and drug-likeness parameters as calculated via the MolSoft platform.
Migration assays were performed via the Scratch Method as described previously.

Data set [5] addresses Cdc42 (Homo sapiens, UniProt P60953). The following applies: cited from earlier work.
Data set [6] deals with MDA-MB-231 breast cancer cell lines. The experiment in a line: Cytotoxicity (IC50) of EHop-016 derivatives modified in building block C. The following applies: Homo sapiens, concentration at which 50% of the cell growth is inhibited. Format: cell-based. Here is the method: as §4
The target of data set [7] is Rac1-Vav2 interaction (Homo sapiens, UniProt P63000). The settings on record: cited from earlier work.
Data set [8] relates to PAK1. The settings on record: at 2 μM; cited from earlier work.
For data set [9], the target named is Rac (Homo sapiens, UniProt P63000). The settings on record: cited from earlier work.
Data set [10] relates to MDA-MB-231 cancer cells. Kind of data set: Sulforhodamine B (SRB) growth inhibition assay. The class given is cell-based, human. The settings on record: Homo sapiens, MDA-MB-231; SRB assay, 24 h treatment, mean of triplicate, SD <10%. Here is the method:
as §1, §2, §3

Like-named read-outs stand apart in the source and are kept apart here.

Chain of Cdc42 (P60953 whole entry, species assumed): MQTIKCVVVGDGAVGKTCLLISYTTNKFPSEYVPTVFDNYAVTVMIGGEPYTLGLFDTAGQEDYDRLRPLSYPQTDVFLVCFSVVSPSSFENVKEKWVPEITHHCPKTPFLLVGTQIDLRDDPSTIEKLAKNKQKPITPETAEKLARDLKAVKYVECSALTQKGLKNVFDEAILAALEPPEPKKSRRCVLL

As for `CCn1c2ccccc2c2cc(Nc3ccnc(NCCCN4CCOCC4)n3)ccc21` (racemic) [EHop-016], the clearance in words entry in data set [1] is recorded as “cleared rapidly from the circulation”. For the same compound, the concentration for 50% growth inhibition (GI50) in data set [2] was found to be 14 µM; in data set [10], 15 µM. For the same compound, in data set [3], the “tumor growth, metastasis and angiogenesis in words” value was “significantly reduced tumor growth, metastasis, and angiogenesis”. In data set [4] (Homo sapiens, MDA-MB-231, 24 h, at 1 μM), the activity at 1 µM was 95.4%. The compound further showed an activity at 5 µM in data set [4] (Homo sapiens, MDA-MB-231, 24 h, at 5 μM) of 63.4%. Further, in [4] (Homo sapiens, MDA-MB-231, read-out: inhibition of migration, at 1.0 μM, scratch method), the inhibition at 1 µM is 5%. Moreover, the inhibition at 5 µM in data set [4] (Homo sapiens, MDA-MB-231, read-out: inhibition of migration, at 5.0 μM, scratch method) is 37%. The inhibition at 10 µM is 33% in data set [4] (Homo sapiens, MDA-MB-231) and 33% in [4] (Homo sapiens, at 10 μM, 24 h, MDA-MB-231). For the same compound, the activity at 10 µM in [4] (Homo sapiens, percent relative migration at 10 μM after 24 h, relative to control, MDA-MB-231) worked out at 67 ± 7.55%. Also, the anti-migratory activity in [4] (at 5 pM as printed, MDA-MB-231) worked out at 17%; in data set [4] (at 5 μM, MDA-MB-231) it was 17%. Besides, the “concentrations that inhibit Cdc42 activity” value in data set [5] is not below 10 µM. Moreover, the results for the concentration for half-maximal inhibition (IC50) in data set [6], in data set [7] and in data set [9] (metastatic breast cancer cells) were 15.7 µM, 1 µM and 1 µM, respectively. The inhibition of PAK1 in data set [8] was 60%. Besides, the “activity relative to previously available Rac inhibitors” value in [9] is listed as 10-100 times.
